Assay results as given in ChEMBL document CHEMBL1142829, “Structure-antioxidant activity relationships of flavonoids isolated from the resinous exudate of Heliotropium sinuatum” (Bioorg Med Chem Lett, 2005).

experiment: Ratio between antioxidant activities determined employing ABTS and DPPH methods

| Ratio | SMILES |
| --- | --- |
| 6.6 | COc1cc(-c2oc3cc(O)cc(OC)c3c(=O)c2OC)ccc1O |
| 170 | COc1cc(O)cc2oc(-c3ccccc3)cc(=O)c12 |
| 143 | COc1cc(O)cc2oc(-c3ccc(O)cc3)cc(=O)c12 |
| 3.4 | COc1cc(O)c2c(=O)cc(-c3ccc(O)c(O)c3)oc2c1 |
| 125 | COc1cc(OC)c2c(=O)c(OC)c(-c3ccc(O)c(OC)c3)oc2c1 |
| 160 | COc1cc(O)cc2oc(-c3ccccc3)c(OC(C)=O)c(=O)c12 |
| 126 | COc1ccc(-c2cc(=O)c3c(OC)cc(O)cc3o2)cc1O |
| 6.8 | COc1c(-c2ccccc2)oc2cc(O)cc(OC)c2c1=O |
